Literature values as cited in patent publication US20140255982A1, “METHOD OF CANCER DIAGNOSIS USING THE ANALYSIS OF ISOTOPES” (priority 2007, published 2014).

Experiments:
[1] = test system: rats; conditions: within 5 days; deuterium in the form of D2O
[2] = test system: microorganisms; conditions: deuterium in the form of D2O

For `[2H]O[2H]` [D2O], the “kill rate of rats” value [1] is given as 99.5% and the “inhibitory activity against microorganisms” value [2] is given as 92%.
